Data taken from article PMC7366380, “Discovery of a Potent and Selective Covalent Inhibitor and Activity-Based Probe for the Deubiquitylating Enzyme UCHL1, with Antifibrotic Activity” (Journal of the American Chemical Society, 2020).

Experiments:
[1] = FMT assay, cell number (DAPI nuclei count); settings: human
[2] = tested on: primary human bronchial fibroblasts from IPF patients (TGF-β1-triggered αSMA); assay: Fibroblast-to-myofibroblast transition (FMT) assay, αSMA by high content analysis

SMILES: COC(=O)c1ccc2c(c1)NC(=O)/C2=C(\Nc1ccc(N(C)C(=O)CN2CCN(C)CC2)cc1)c1ccccc1 [nintedanib, reference compound]
- EC50 at 3 days [1]: ~18 µM
- IC50 ([2]; Homo sapiens, Fibroblast, 72 h, read-out: αSMA inhibition IC50 (95% CI)): 0.28 µM
- αSMA inhibition / transdifferentiation (in words) ([2]; IPF donor fibroblasts, TGF-β1, 3 days, high content imaging): inhibit transdifferentiation
